# Measured values reported in patent publication US20070128217A1 (priority 2003, published 2007).
# Assays:
# [1] = tested on: antibodies in sera from SARS patients (sera 1a, 1b, 2, 6, 37, 62, London, SARS-yellow, SARS-green); type: binding, human; set-up: Binding of serum 6 to linear peptides of protein X1 of SARS-CoV Urbani / Binding of serum 37 to linear peptides of protein X1 of SARS-CoV Urbani / Binding of serum 6 to looped/cyclic peptide (PEPSCAN-ELISA) / Binding of serum 37 to looped/cyclic peptide (PEPSCAN-ELISA) / Binding of serum 37 to looped/cyclic peptides of protein X1 of SARS-CoV Urbani / Binding of serum 6 to linear peptides of protein X2 / Binding of serum 37 to linear peptides of protein X2 / Binding of serum 37 to looped/cyclic peptides of protein X2 of SARS-CoV Urbani / Binding of serum 6 to linear peptides of protein M of SARS-CoV Urbani / Binding of serum 37 to linear peptides of protein M of SARS-CoV Urbani / Binding of serum 6 to looped/cyclic peptides of protein M of SARS-CoV Urbani / Binding of serum 37 to looped/cyclic peptides of protein M of SARS-CoV Urbani / Binding of serum 6 to linear peptides of protein X3 of SARS-CoV Urbani / Binding of serum 37 to linear peptides of protein X3 of SARS-CoV Urbani / Binding of serum 37 to looped/cyclic peptides of protein X3 of SARS-CoV Urbani / Binding of serum 6 to linear peptides of protein X4 of SARS-CoV Urbani / Binding of serum 37 to linear peptides of protein X4 of SARS-CoV Urbani / Binding of serum 37 to looped/cyclic peptides of protein X4 of SARS-CoV Urbani / Binding of serum 6 to linear peptides of protein X5 of SARS-CoV Urbani / Binding of serum 37 to linear peptides of protein X5 of SARS-CoV Urbani / Binding of serum 37 to looped/cyclic peptides of protein X5 of SARS-CoV Urbani / Binding of serum 6 to linear peptides of protein N of SARS-CoV Urbani / Binding of serum 37 to linear peptides of protein N of SARS-CoV Urbani / Binding of serum 6 to linear peptide (PEPSCAN-ELISA) / Binding of serum 1a to looped/cyclic peptides of protein N of SARS-CoV Urbani / Binding of serum 1b to looped/cyclic peptides of protein N of SARS-CoV Urbani / Binding of serum 2 to looped/cyclic peptides of protein N of SARS-CoV Urbani / Binding of serum 6 to looped/cyclic peptides of protein N of SARS-CoV Urbani / Binding of serum 37 to looped/cyclic peptides of protein N of SARS-CoV Urbani / Binding of serum 62 to looped/cyclic peptides of protein N of SARS-CoV Urbani / Binding of serum London to looped/cyclic peptides of protein N of SARS-CoV Urbani / Binding of serum SARS-green to looped/cyclic peptides of protein N of SARS-CoV Urbani: unit not given here
# [2] = tested on: control sera (pooled serum of ten healthy LUMC hospital workers; commercial negative donor pooled serum from the Dutch bloodbank); type: binding, human; set-up: Binding of Control serum LUMC to linear peptides / Binding of Control serum Blood-bank to linear peptides / Binding of Control serum LUMC to looped peptides / Binding of Control Serum Blood-Bank to Looped peptides / Binding of Control serum LUMC to linear peptides of the protein M of SARS-CoV Urbani / Binding of Control serum Blood-bank to linear peptides of the protein M of SARS-CoV Urbani / Binding of Control serum LUMC to looped peptides of the protein M of SARS-CoV Urbani / Binding of Control Serum Blood-Bank to Looped peptides of the protein M of SARS-CoV Urbani: unit not given here
# [3] = tested on: rabbit serum obtained by immunizing a rabbit with the SARS-CoV strain Frankfurt 1; type: binding; set-up: Binding of a rabbit serum to linear peptides / Binding of a rabbit serum to looped peptides / Rabbit serum linear peptides / Rabbit serum looped peptides / Binding of a rabbit serum to linear peptides of protein N of SARS-CoV Urbani (Rabbit serum linear peptides) / Binding of a rabbit serum to looped/cyclic peptides of protein N of SARS-CoV Urbani (Rabbit serum looped peptides): unit not given here
sequence,measurement,setting,value
QLRARSVSPKLFIRQ,Binding of serum 1a to linear peptides of protein X4 of SARS-CoV Urbani,[1],0.7
same,Binding of serum 1a to looped/cyclic peptides of protein X4 of SARS-CoV Urbani,[1],0.7
same,Binding of serum 1b to linear peptides of protein X4 of SARS-CoV Urbani,[1],0.6
same,Binding of serum 1b to looped/cyclic peptides of protein X4 of SARS-CoV Urbani,[1],0.6
same,Binding of serum 2 to linear peptides of protein X4 of SARS-CoV Urbani,[1],0.6
same,Binding of serum 2 to looped/cyclic peptides of protein X4 of SARS-CoV Urbani,[1],0.8
same,Binding of serum 6 to linear peptides of protein X4 of SARS-CoV Urbani,[1],0.9
same,Binding of serum 6 to looped/cyclic peptides of protein X4 of SARS-CoV Urbani,[1],0.9
same,Binding of serum 37 to linear peptides of protein X4 of SARS-CoV Urbani,[1],0.7
same,Binding of serum 37 to looped/cyclic peptides of protein X4 of SARS-CoV Urbani,[1],0.6
same,Binding of serum 62 to linear peptides of protein X4 of SARS-CoV Urbani,[1],0.7
same,Binding of serum 62 to looped/cyclic peptides of protein X4 of SARS-CoV Urbani,[1],0.6
same,Binding of serum London to linear peptides of protein X4 of SARS-CoV Urbani,[1],0.8
same,Binding of serum London to looped/cyclic peptides of protein X4 of SARS-CoV Urbani,[1],0.4
same,Binding of serum SARS-green to linear peptides of protein X4 of SARS-CoV Urbani,[1],0.6
same,Binding of serum SARS-green to looped/cyclic peptides of protein X4 of SARS-CoV Urbani,[1],0.4
same,Binding of serum SARS-yellow to linear peptides of protein X4 of SARS-CoV Urbani,[1],0.3
same,Binding of serum SARS-yellow to looped/cyclic peptides of protein X4 of SARS-CoV Urbani,[1],0.8
same,Binding of Control Serum Blood-Bank to Looped peptides,[2],0.9
same,Binding of Control serum Blood-bank to linear peptides,[2],0.7
same,Binding of Control serum LUMC to linear peptides,[2],0.6
same,Binding of Control serum LUMC to looped peptides,[2],0.8
same,Recognition of the peptide by the rabbit serum,[3],recognized
QLSLLKVTAFQHQNS,Binding of serum 1a to linear peptides of protein X2,[1],0.5
same,Binding of serum 1a to looped/cyclic peptides of protein X2 of SARS-CoV Urbani,[1],0.5
same,Binding of serum 1b to linear peptides of protein X2,[1],0.4
same,Binding of serum 1b to looped/cyclic peptides of protein X2 of SARS-CoV Urbani,[1],0.5
same,Binding of serum 2 to linear peptides of protein X2,[1],0.3
same,Binding of serum 2 to looped/cyclic peptides of protein X2 of SARS-CoV Urbani,[1],0.3
same,Binding of serum 6 to linear peptides of protein X2,[1],0.4
same,Binding of serum 6 to looped/cyclic peptides of protein X2 of SARS-CoV Urbani,[1],0.3
same,Binding of serum 37 to linear peptides of protein X2,[1],0.5
same,Binding of serum 37 to looped/cyclic peptides of protein X2 of SARS-CoV Urbani,[1],0.4
same,Binding of serum 62 to linear peptides of protein X2,[1],0.3
same,Binding of serum 62 to looped/cyclic peptides of protein X2 of SARS-CoV Urbani,[1],0.6
same,Binding of serum London to linear peptides of protein X2,[1],0.3
same,Binding of serum London to looped/cyclic peptides of protein X2 of SARS-CoV Urbani,[1],0.3
same,Binding of serum SARS-green to linear peptides of protein X2,[1],0.1
same,Binding of serum SARS-green to looped/cyclic peptides of protein X2 of SARS-CoV Urbani,[1],0.2
same,Binding of serum SARS-yellow to linear peptides of protein X2,[1],0.1
same,Binding of serum SARS-yellow to looped/cyclic peptides of protein X2 of SARS-CoV Urbani,[1],0.3
same,Binding of Control Serum Blood-Bank to Looped peptides,[2],0.5
same,Binding of Control serum Blood-bank to linear peptides,[2],0.4
same,Binding of Control serum LUMC to linear peptides,[2],0.6
same,Binding of Control serum LUMC to looped peptides,[2],0.6
same,Binding of a rabbit serum to linear peptides,[3],0.6
same,Binding of a rabbit serum to looped peptides,[3],0.5
QQELYSPLFLIVAAL,Binding of serum 1a to linear peptides of protein X4 of SARS-CoV Urbani,[1],0.7
same,Binding of serum 1a to looped/cyclic peptides of protein X4 of SARS-CoV Urbani,[1],0.7
same,Binding of serum 1b to linear peptides of protein X4 of SARS-CoV Urbani,[1],0.5
same,Binding of serum 1b to looped/cyclic peptides of protein X4 of SARS-CoV Urbani,[1],0.4
same,Binding of serum 2 to linear peptides of protein X4 of SARS-CoV Urbani,[1],0.5
same,Binding of serum 2 to looped/cyclic peptides of protein X4 of SARS-CoV Urbani,[1],0.6
same,Binding of serum 6 to linear peptides of protein X4 of SARS-CoV Urbani,[1],0.7
same,Binding of serum 6 to looped/cyclic peptides of protein X4 of SARS-CoV Urbani,[1],0.4
same,Binding of serum 37 to linear peptides of protein X4 of SARS-CoV Urbani,[1],0.7
same,Binding of serum 37 to looped/cyclic peptides of protein X4 of SARS-CoV Urbani,[1],0.6
same,Binding of serum 62 to linear peptides of protein X4 of SARS-CoV Urbani,[1],0.6
same,Binding of serum 62 to looped/cyclic peptides of protein X4 of SARS-CoV Urbani,[1],0.6
same,Binding of serum London to linear peptides of protein X4 of SARS-CoV Urbani,[1],0.8
same,Binding of serum London to looped/cyclic peptides of protein X4 of SARS-CoV Urbani,[1],0.3
same,Binding of serum SARS-green to linear peptides of protein X4 of SARS-CoV Urbani,[1],0.6
same,Binding of serum SARS-green to looped/cyclic peptides of protein X4 of SARS-CoV Urbani,[1],0.5
same,Binding of serum SARS-yellow to linear peptides of protein X4 of SARS-CoV Urbani,[1],0.6
same,Binding of serum SARS-yellow to looped/cyclic peptides of protein X4 of SARS-CoV Urbani,[1],0.7
same,Binding of Control Serum Blood-Bank to Looped peptides,[2],0.6
same,Binding of Control serum Blood-bank to linear peptides,[2],0.5
same,Binding of Control serum LUMC to linear peptides,[2],0.4
same,Binding of Control serum LUMC to looped peptides,[2],0.6
same,Rabbit serum linear peptides,[3],0.4
same,Rabbit serum looped peptides,[3],0.4
QQWIQFMMSRRRLLA,Binding of serum 1a to linear peptides of protein X2,[1],0.6
same,Binding of serum 1a to looped/cyclic peptides of protein X2 of SARS-CoV Urbani,[1],0.6
same,Binding of serum 1b to linear peptides of protein X2,[1],0.4
same,Binding of serum 1b to looped/cyclic peptides of protein X2 of SARS-CoV Urbani,[1],0.5
same,Binding of serum 2 to linear peptides of protein X2,[1],0.4
same,Binding of serum 2 to looped/cyclic peptides of protein X2 of SARS-CoV Urbani,[1],0.6
same,Binding of serum 6 to linear peptides of protein X2,[1],0.8
same,Binding of serum 6 to looped/cyclic peptides of protein X2 of SARS-CoV Urbani,[1],0.4
same,Binding of serum 37 to linear peptides of protein X2,[1],0.6
same,Binding of serum 37 to looped/cyclic peptides of protein X2 of SARS-CoV Urbani,[1],0.6
same,Binding of serum 62 to linear peptides of protein X2,[1],0.6
same,Binding of serum 62 to looped/cyclic peptides of protein X2 of SARS-CoV Urbani,[1],0.8
same,Binding of serum London to linear peptides of protein X2,[1],0.5
same,Binding of serum London to looped/cyclic peptides of protein X2 of SARS-CoV Urbani,[1],0.3
same,Binding of serum SARS-green to linear peptides of protein X2,[1],0.6
same,Binding of serum SARS-green to looped/cyclic peptides of protein X2 of SARS-CoV Urbani,[1],0.5
same,Binding of serum SARS-yellow to linear peptides of protein X2,[1],0.6
same,Binding of serum SARS-yellow to looped/cyclic peptides of protein X2 of SARS-CoV Urbani,[1],0.4
same,Binding of Control Serum Blood-Bank to Looped peptides,[2],0.7
same,Binding of Control serum Blood-bank to linear peptides,[2],0.8
same,Binding of Control serum LUMC to linear peptides,[2],0.6
same,Binding of Control serum LUMC to looped peptides,[2],0.5
same,Binding of a rabbit serum to linear peptides,[3],0.8
same,Binding of a rabbit serum to looped peptides,[3],1.5
QTLVLKMLHSSSLTS,Binding of serum 1a to linear peptides of protein X2,[1],0.7
same,Binding of serum 1a to looped/cyclic peptides of protein X2 of SARS-CoV Urbani,[1],0.6
same,Binding of serum 1b to linear peptides of protein X2,[1],0.5
same,Binding of serum 1b to looped/cyclic peptides of protein X2 of SARS-CoV Urbani,[1],0.4
same,Binding of serum 2 to linear peptides of protein X2,[1],0.5
same,Binding of serum 2 to looped/cyclic peptides of protein X2 of SARS-CoV Urbani,[1],0.3
same,Binding of serum 6 to linear peptides of protein X2,[1],0.5
same,Binding of serum 6 to looped/cyclic peptides of protein X2 of SARS-CoV Urbani,[1],0.5
same,Binding of serum 37 to linear peptides of protein X2,[1],0.5
same,Binding of serum 37 to looped/cyclic peptides of protein X2 of SARS-CoV Urbani,[1],0.4
same,Binding of serum 62 to linear peptides of protein X2,[1],0.6
same,Binding of serum 62 to looped/cyclic peptides of protein X2 of SARS-CoV Urbani,[1],0.6
same,Binding of serum London to linear peptides of protein X2,[1],0.4
same,Binding of serum London to looped/cyclic peptides of protein X2 of SARS-CoV Urbani,[1],0.9
same,Binding of serum SARS-green to linear peptides of protein X2,[1],0.5
same,Binding of serum SARS-green to looped/cyclic peptides of protein X2 of SARS-CoV Urbani,[1],0.3
same,Binding of serum SARS-yellow to linear peptides of protein X2,[1],0.7
same,Binding of serum SARS-yellow to looped/cyclic peptides of protein X2 of SARS-CoV Urbani,[1],0.4
same,Binding of Control Serum Blood-Bank to Looped peptides,[2],0.5
same,Binding of Control serum Blood-bank to linear peptides,[2],0.7
same,Binding of Control serum LUMC to linear peptides,[2],0.4
same,Binding of Control serum LUMC to looped peptides,[2],0.6
same,Binding of a rabbit serum to linear peptides,[3],0.3
same,Binding of a rabbit serum to looped peptides,[3],0.4
